Experimental findings from ChEMBL document CHEMBL1201862, “PubChem BioAssay data set” (2004) are described below.

Molecules are shown by their SMILES.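 These data come from cells grown in 96-well plates and exposed to compound for 48 hours at five concentrations. GI50: concentration for 50% inhibition of growth.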 Calls of active or inactive are those of the source. Cut-off read from the data, not from the text of the source: active = GI50 up to about 1.1 µM and inactive = higher.

Among the test systems are NCI-H23; SF-268; EKVX; MCF7; UACC-62; MOLT-4; T47D; UO-31; SW-620; Hs-578T; PC-3; UACC-257; HCT-15; RPMI-8226; Malme-3M; ACHN; SK-MEL-2; SF-539; U-251; MDA-N.
What all share (test): NCI-60 cell line screen, 48 h

`CSC(SC)(C(=O)O)c1cc(-c2c(Cl)cccc2Cl)no1`: the GI50 was 19.2 µM (inactive) in the test with NCI-H23; 51.9 µM (inactive) with SF-268; 54.6 µM (inactive) in the test with EKVX; 70.1 µM (inactive) in the test on MCF7; 27.9 µM (inactive) in the test on UACC-62; 24.5 µM (inactive) with MOLT-4. In addition, the GI50 was 28.4 µM (inactive) with T47D; 25.1 µM (inactive) in the test on UO-31; > 100 µM (inactive) in the test with SW-620; 39.2 µM (inactive) in the test with Hs-578T; 34 µM (inactive) with PC-3; 42.9 µM (inactive) in the test with UACC-257. In addition, the GI50 in the test on HCT-15 is 15.5 µM; in the test on RPMI-8226, 16.3 µM (inactive); with Malme-3M it was 60.8 µM (inactive); in the test on ACHN it was 46.9 µM (inactive); in the test on SK-MEL-2 it was 26.3 µM (inactive); with SF-539, > 100 µM (inactive). Further, the GI50 in the test with U-251 was 28.4 µM (inactive).

Take `O=C(NNc1nc(-c2ccccc2)cs1)C(F)(F)F`: the GI50 is 34 µM (inactive) in the test on NCI-H23; 29.6 µM (inactive) in the test on SF-268; 98.9 µM (inactive) in the test with EKVX; > 100 µM (inactive) in the test with MCF7; 58.7 µM (inactive) with UACC-62; 20 µM (inactive) with MOLT-4. The GI50 in the test with T47D is 23.9 µM (inactive); in the test on UO-31 it was 3.3 µM (inactive); in the test on SW-620, 34.4 µM (inactive); in the test on Hs-578T, 15.9 µM (inactive); in the test with PC-3 it was 37.8 µM (inactive); with UACC-257, 44.3 µM (inactive). The GI50 in the test on HCT-15 is 57.3 µM; with RPMI-8226, 16.4 µM (inactive); with Malme-3M it was 53.7 µM (inactive); with ACHN, 29.2 µM (inactive); with SK-MEL-2 it was 36.3 µM (inactive); in the test with U-251 it was 26.3 µM (inactive).

Regarding `CCNC(=O)NNc1ncnc2c1c(-c1ccc(Cl)cc1)cn2-c1ccc(C)cc1`, the GI50 in the test on NCI-H23 is 24.6 µM (inactive); in the test with SF-268 it was 19 µM (inactive); with EKVX it was 20.2 µM (inactive); with UACC-62 it was 15.3 µM (inactive); in the test with MOLT-4, 16.4 µM (inactive); in the test on T47D it was 14.6 µM (inactive). In addition, the GI50 is 14.2 µM (inactive) in the test with UO-31; 21.2 µM (inactive) in the test with SW-620; 17.7 µM (inactive) in the test with PC-3; 21.3 µM (inactive) with UACC-257; 20.5 µM in the test with HCT-15; 19.8 µM (inactive) with MDA-N. The GI50 is 18.8 µM (inactive) in the test with Malme-3M; 17.7 µM (inactive) with ACHN; 20.4 µM (inactive) in the test with SK-MEL-2; 16.7 µM (inactive) in the test with SF-539; 17.1 µM (inactive) in the test with U-251.

With `Cc1ccc(S(=O)(=O)N2CCCN(S(=O)(=O)c3ccc(C)cc3)CCN(S(=O)(=O)c3ccc(C)cc3)CCCSCC2)cc1`, the GI50 in the test on NCI-H23, in the test with SF-268, with EKVX, with MCF7, in the test on UACC-62 and in the test on MOLT-4 was > 100 µM (inactive) in each case. The GI50 in the test with T47D, in the test on UO-31, with SW-620, in the test on Hs-578T, with RPMI-8226 and with MDA-N was > 100 µM (inactive) in each case. Besides, the GI50 in the test on ACHN is > 100 µM (inactive); in the test on SK-MEL-2, > 100 µM (inactive); in the test on SF-539 it was > 100 µM (inactive); in the test with U-251, 76.7 µM (inactive).

In the case of `N#C/C(C(=O)Nc1ccccc1)=C(/N)N1CCCCC1`, the GI50 is > 100 µM (inactive) with NCI-H23; 98.4 µM (inactive) in the test on EKVX; > 100 µM (inactive) with MCF7; 95.7 µM (inactive) in the test on UACC-62; > 100 µM (inactive) in the test with MOLT-4; > 100 µM (inactive) in the test on T47D. Besides, the GI50 was 67.3 µM (inactive) with UO-31; > 100 µM (inactive) in the test on SW-620; > 100 µM (inactive) with PC-3; > 100 µM (inactive) in the test on UACC-257; above 100 µM in the test on HCT-15; > 100 µM (inactive) in the test with RPMI-8226. Moreover, the GI50 in the test on MDA-N, in the test on ACHN, with SK-MEL-2, with SF-539 and in the test on U-251 was > 100 µM (inactive) in each case.

With `CCCCN1/C(=N/Nc2n[nH]c(=O)c3ccccc23)SCC1c1ccc(Cl)cc1` (configuration not stated), the GI50 in the test with NCI-H23 is 1.64 µM (inactive); with SF-268 it was 6.64 µM (inactive); in the test on EKVX, 4.27 µM (inactive); in the test with MCF7, 10.6 µM (inactive); in the test on UACC-62, 7.31 µM (inactive); in the test on T47D it was 4.29 µM (inactive). Besides, the GI50 in the test on UO-31 is 18.7 µM (inactive); in the test with SW-620, 19.8 µM (inactive); in the test on Hs-578T it was 15.1 µM (inactive); in the test on PC-3, 14 µM (inactive); with UACC-257 it was 12.2 µM (inactive); with HCT-15, 6.52 µM. Moreover, the GI50 is 4.72 µM (inactive) with RPMI-8226; 22 µM (inactive) with Malme-3M; 25.3 µM (inactive) in the test on ACHN; 20.9 µM (inactive) in the test on SK-MEL-2; 12.7 µM (inactive) in the test with SF-539; 4.92 µM (inactive) in the test on U-251.

With `Cc1nc(N)c(N2CCN(S(N)(=O)=O)CC2)c(O)n1`, the GI50 with NCI-H23, in the test on SF-268, in the test on EKVX, with MCF7, in the test on MOLT-4 and in the test with T47D was > 100 µM (inactive) in each case. Moreover, the GI50 in the test with UO-31 is > 100 µM (inactive); in the test with SW-620, > 100 µM (inactive); in the test with Hs-578T, > 100 µM (inactive); in the test on PC-3, > 100 µM (inactive); with UACC-257 it was > 100 µM (inactive); in the test with HCT-15, above 100 µM. The GI50 in the test on RPMI-8226, in the test with Malme-3M, in the test with ACHN, in the test on SK-MEL-2, with SF-539 and in the test on U-251 was > 100 µM (inactive) each time.

As for `CCNC12CCC(C1)C(C)(C)C2=O` (configuration not stated), the GI50 in the test with NCI-H23, with EKVX, in the test on MCF7, in the test on UACC-62, in the test on MOLT-4 and in the test on T47D was > 100 µM (inactive) throughout. Further, the GI50 in the test with UO-31 is > 100 µM (inactive); in the test with SW-620 it was > 100 µM (inactive); with PC-3 it was > 100 µM (inactive); in the test with UACC-257 it was > 100 µM (inactive); in the test on HCT-15 it was above 100 µM; in the test with RPMI-8226 it was > 100 µM (inactive). The GI50 in the test with MDA-N, with ACHN, in the test with SK-MEL-2 and in the test with U-251 was > 100 µM (inactive) in each case.

Turning to `Cc1cc(NS(=O)(=O)c2ccc(/N=N/c3c(Nc4ccccc4)nn(-c4ccc(S(=O)(=O)Nc5ccncn5)cc4)c3C)cc2)no1`, the GI50 in the test with NCI-H23, with EKVX, in the test with MCF7, in the test with UACC-62, in the test with MOLT-4 and in the test on T47D was > 100 µM (inactive) each time. For the same molecule, the GI50 is > 100 µM (inactive) in the test on UO-31; > 100 µM (inactive) with PC-3; > 100 µM (inactive) in the test with UACC-257; above 100 µM in the test on HCT-15; > 100 µM (inactive) in the test on MDA-N; > 100 µM (inactive) with Malme-3M. The GI50 in the test with ACHN, in the test on SK-MEL-2, in the test on SF-539 and in the test on U-251 was > 100 µM (inactive) each time.

Take `N#Cc1c(O)c(/N=N/c2ccccc2F)c(=O)n2c1[nH]c1ccccc12`: the GI50 with NCI-H23 was 38.2 µM (inactive); in the test with SF-268, 32.4 µM (inactive); with EKVX, > 100 µM (inactive); in the test on MCF7, 32.7 µM (inactive); with UACC-62, 20.6 µM (inactive); in the test with UO-31 it was 29.3 µM (inactive). Also, the GI50 with SW-620 is 63.2 µM (inactive); in the test with Hs-578T, 15.4 µM (inactive); in the test with PC-3, 30.3 µM (inactive); with UACC-257, 33.9 µM (inactive); in the test on HCT-15, 37.2 µM; in the test with MDA-N, 22 µM (inactive). In addition, the GI50 with Malme-3M is 28.5 µM (inactive); in the test with ACHN it was 34 µM (inactive); with SK-MEL-2, 20.9 µM (inactive); in the test with SF-539, > 100 µM (inactive); in the test with U-251 it was 32.7 µM (inactive).

On to `O=C1CCC2(c3ccc(F)cc3)Nc3ncncc3N12` (configuration not stated), for which the GI50 with NCI-H23 was > 10 µM (inactive); in the test on SF-268 it was > 10 µM (inactive); in the test on EKVX it was 9.93 µM (inactive); in the test with MCF7, 2.32 µM (inactive); in the test with UACC-62, > 10 µM (inactive); with MOLT-4, > 10 µM (inactive). In addition, the GI50 was > 10 µM (inactive) in the test with UO-31; > 10 µM (inactive) in the test with SW-620; > 10 µM (inactive) in the test on Hs-578T; > 10 µM (inactive) in the test with PC-3; > 10 µM (inactive) in the test on UACC-257; above 10 µM in the test with HCT-15. In addition, the GI50 in the test on MDA-N, in the test with Malme-3M, in the test with ACHN, in the test with SK-MEL-2, in the test on SF-539 and with U-251 was > 10 µM (inactive) in each case.

In the case of `O=c1c2ccccc2n2c(-c3ccc(O)cc3)nnc2n1-c1ccccc1`, the GI50 is 20.3 µM (inactive) with NCI-H23; 21.8 µM (inactive) with SF-268; 17 µM (inactive) in the test on EKVX; 19.6 µM (inactive) with UACC-62; 36.1 µM (inactive) with MOLT-4; 13.4 µM (inactive) with T47D. Also, the GI50 with UO-31 is 3.72 µM (inactive); with SW-620 it was 13.5 µM (inactive); with PC-3, 17.9 µM (inactive); in the test on UACC-257, 21.5 µM (inactive); with HCT-15, 23.1 µM; with MDA-N it was 15.7 µM (inactive). The GI50 is 21.5 µM (inactive) in the test with Malme-3M; 16.1 µM (inactive) in the test on ACHN; 20.7 µM (inactive) in the test with SK-MEL-2; 18 µM (inactive) with SF-539; 17.2 µM (inactive) in the test with U-251.
